Read-outs that look alike come from different tables or passages of the source.
Tests used:
Type in all cases: cell-based
CDK9 = molecular target: T1, CDK9 (Homo sapiens, UniProt P50750); assay: HiBit Assay Protocol for CDK9 (HIBIT protein quantification, degradation); conditions: HEK293-CDK9-Hibit cells, compound treatment for 6 hours, read-out: CDK9 HIBIT Protein Quantification Maximum
T1 construct: host or cells: HEK293-CDK9-Hibit
Procedure, shortened: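 HEK293 cells carrying HiBiT-tagged CDK9 treated 6 h with compounds in a 3-fold, 10-point dilution series. CDK9 level read by lytic Nano-Glo HiBiT/LgBiT luminescence and normalized to 0.1% DMSO (high) and medium-only (low) controls. DC50 from curve fitting.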

CCNE1 = molecular target: T2, CCNE1 (Homo sapiens, UniProt P24864); assay: HiBit Assay Protocol for CCNE1 (HIBIT protein quantification, degradation); conditions: HEK293-CCNE1-Hibit cells, compound treatment for 6 hours
T2 construct: host or cells: HEK293-CCNE1-Hibit
Procedure, shortened: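 HEK293 cells expressing HiBiT-tagged CCNE1 were seeded overnight, then treated 6 h with a 3-fold, 10-point compound dilution series. HiBiT levels were read by lytic LgBiT luminescence and normalised to DMSO-only (high) and medium-only (low) controls. DC50 was derived by curve fitting.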

CDK2 = molecular target: T3, CDK2 (Homo sapiens, UniProt P24941); assay: HiBit Assay Protocol for CDK2 (HIBIT protein quantification, degradation); conditions: HEK293-CDK2-Hibit cells, compound treatment for 6 hours; for DC50: ABS DC50
T3 construct: host or cells: HEK293-CDK2-Hibit
Procedure, shortened: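 HEK293 cells expressing HiBiT-tagged CDK2 were seeded overnight, then treated 6 h with a 3-fold, 10-point compound dilution series. CDK2 levels were read as luminescence after lytic HiBiT/LgBiT detection, normalised to DMSO-only and medium-only controls, and DC50 derived by curve fitting.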

T2 sequence (P24864 whole entry): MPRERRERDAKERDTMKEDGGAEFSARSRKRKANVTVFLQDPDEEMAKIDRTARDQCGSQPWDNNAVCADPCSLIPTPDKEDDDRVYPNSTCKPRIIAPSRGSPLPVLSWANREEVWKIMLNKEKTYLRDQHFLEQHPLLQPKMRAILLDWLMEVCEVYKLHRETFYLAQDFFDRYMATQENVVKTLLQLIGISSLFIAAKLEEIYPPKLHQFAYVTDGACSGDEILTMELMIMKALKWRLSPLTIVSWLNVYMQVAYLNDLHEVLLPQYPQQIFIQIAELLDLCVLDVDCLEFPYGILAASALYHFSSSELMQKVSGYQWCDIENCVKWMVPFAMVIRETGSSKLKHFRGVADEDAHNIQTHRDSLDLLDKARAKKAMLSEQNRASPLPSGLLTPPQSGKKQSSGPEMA
T1 sequence (P50750 whole entry): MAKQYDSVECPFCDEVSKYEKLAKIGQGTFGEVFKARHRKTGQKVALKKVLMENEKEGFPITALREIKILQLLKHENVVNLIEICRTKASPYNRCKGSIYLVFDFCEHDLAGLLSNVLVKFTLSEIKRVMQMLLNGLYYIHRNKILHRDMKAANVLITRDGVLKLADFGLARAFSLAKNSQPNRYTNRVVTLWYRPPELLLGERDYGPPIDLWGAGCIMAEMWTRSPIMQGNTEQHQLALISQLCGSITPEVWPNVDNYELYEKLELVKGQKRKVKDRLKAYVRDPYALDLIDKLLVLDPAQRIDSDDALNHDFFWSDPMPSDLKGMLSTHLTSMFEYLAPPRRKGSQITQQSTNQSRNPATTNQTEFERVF

Structure (SMILES) | Dmax (CDK9) | CCNE1 HIBIT Protein Quantification Maximum (CCNE1) | CDK2 HIBIT Protein Quantification Maximum (CDK2) | DC50 (CDK2) | Dmax (CDK9; 6 h)
Cn1nc(N2CCC(=O)NC2=O)c2ccc(C3CCN(Cc4cc(F)cc(S(=O)(=O)N5CCC(Nc6ncc7c(n6)N([C@@H]6CCC[C@@H](O)C6)C(=O)C76CC6)CC5)c4)CC3)cc21 [Compound 170, 1-[6-(1-{[3-Fluoro-5-(4-{7′-[(1R,3R)-3-hydroxycyclohexyl]-6′-oxospiro[cyclopropane-1,5′-pyrrolo[2,3-d]pyrimidin]-2′-ylamino}piperidin-1-ylsulfonyl)phenyl]methyl}piperidin-4-yl)-1-methylindazol-3-yl]-1,3-diazinane-2,4-dione] | 5% | 46% | 75% | 3.63 nM | –
Cn1nc(N2CCC(=O)NC2=O)c2ccc(C3CCN(Cc4ccc(F)c(S(=O)(=O)N5CCC(Nc6ncc7c(n6)N([C@@H]6CCC[C@@H](O)C6)C(=O)C76CC6)CC5)c4)CC3)cc21 [Compound 171] | – | 29% | 55% | 4.43 nM | 15%
Cn1nc(N2CCC(=O)NC2=O)c2ccc(C3CCN(Cc4cccc(S(=O)(=O)N5CCC(Nc6ncc7c(n6)N([C@@H]6CCC[C@@H](O)C6)C(=O)C76CC6)CC5)c4F)CC3)cc21 [Compound 172] | – | 49% | 74% | 4.05 nM | 17%
Cn1nc(N2CCC(=O)NC2=O)c2ccc(C3CCN(Cc4cccc(S(=O)(=O)N5CCC(Nc6ncc7c(n6)N([C@@H]6CCC[C@@H](O)C6)C(=O)C76CC6)CC5)c4)CC3)c(F)c21 [Compound 175, 1-[7-fluoro-6-(1-{[3-(4-{7′-[(1R,3R)-3-Hydroxycyclohexyl]-6′-oxospiro[cyclopropane-1,5′-pyrrolo[2,3-d]pyrimidin]-2′-ylamino}piperidin-1-ylsulfonyl)phenyl]methyl}piperidin-4-yl)-1-methylindazol-3-yl]-1,3-diazinane-2,4-dione] | – | 44% | 78% | 4.19 nM | 8%
Cn1nc(N2CCC(=O)NC2=O)c2cc(F)c(C3CCN(Cc4cccc(S(=O)(=O)N5CCC(Nc6ncc7c(n6)N([C@@H]6CCC[C@@H](O)C6)C(=O)C76CC6)CC5)c4)CC3)cc21 [Compound 176, 1-[5-Fluoro-6-(1-{[3-(4-{7′-[(1R,3R)-3-hydroxycyclohexyl]-6′-oxospiro[cyclopropane-1,5′-pyrrolo[2,3-d]pyrimidin]-2′-ylamino}piperidin-1-ylsulfonyl)phenyl]methyl}piperidin-4-yl)-1-methylindazol-3-yl]-1,3-diazinane-2,4-dione] | – | 45% | 79% | 3.34 nM | 20%
Cn1nc(N2CCC(=O)NC2=O)c2ccc(C3CCN(Cc4cccc(S(=O)(=O)N5CCC(Nc6ncc7c(n6)N([C@@H]6CCC[C@@H](O)C6)C(=O)C76CC6)CC5)c4)CC3(F)F)cc21 (stereo partly drawn) [Compound 177, 1-[6-(3,3-difluoro-1-{[3-(4-{7′-[(1R,3R)-3-hydroxycyclohexyl]-6′-oxospiro[cyclopropane-1,5′-pyrrolo[2,3-d]pyrimidin]-2′-ylamino}piperidin-1-ylsulfonyl)phenyl]methyl}piperidin-4-yl)-1-methylindazol-3-yl]-1,3-diazinane-2,4-dione] | – | 41% | 81% | 6.51 nM | 14%
Cn1nc(N2CCC(=O)NC2=O)c2ccc(C3CCN(Cc4cccc(S(=O)(=O)N5CCC(Nc6ncc7c(n6)N([C@H]6CCC[C@]6(C)O)C(=O)C76CC6)CC5)c4)CC3)cc21 [Compound 178] | – | 38% | 75% | 1.8 nM | 23%

From patent publication US20260070917A1, “CYCLIN DEPENDENT KINASE DEGRADERS AND METHODS OF USE THEREOF” (Differentiated Therapeutics Inc, priority 2023, published 2026)
